Experimental data as given in PubChem BioAssay (NCI).
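Five concentrations, 48 hours, 96-well plates. TGI: concentration producing complete growth inhibition.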

What was measured:
Test in all cases: NCI tumour cell line growth inhibition, 48 h
786-0 renal = tested on: 786-0 renal
A549 NSCLC = tested on: A549 NSCLC
ACHN renal = tested on: ACHN renal
BT-549 breast = tested on: BT-549 breast
CAKI-1 renal = tested on: CAKI-1 renal
CCRF-CEM leukemia = tested on: CCRF-CEM leukemia
COLO 205 colon = tested on: COLO 205 colon
DU-145 prostate = tested on: DU-145 prostate
EKVX NSCLC = tested on: EKVX NSCLC
HCC-2998 colon = tested on: HCC-2998 colon
HCT-116 colon = tested on: HCT-116 colon
HCT-15 colon = tested on: HCT-15 colon
HL-60(TB) leukemia = tested on: HL-60(TB) leukemia
HOP-92 NSCLC = tested on: HOP-92 NSCLC
HT29 colon = tested on: HT29 colon
IGROV1 ovarian = tested on: IGROV1 ovarian
K-562 leukemia = tested on: K-562 leukemia
KM12 colon = tested on: KM12 colon
LOX IMVI melanoma = tested on: LOX IMVI melanoma
M14 melanoma = tested on: M14 melanoma
MALME-3M melanoma = tested on: MALME-3M melanoma
MCF7 breast = tested on: MCF7 breast
MDA-MB-231 breast = tested on: MDA-MB-231 breast
MDA-MB-435 = tested on: MDA-MB-435
MDA-N = tested on: MDA-N
MOLT-4 leukemia = tested on: MOLT-4 leukemia
NCI-H226 lung = tested on: NCI-H226 lung
NCI-H23 lung = tested on: NCI-H23 lung
NCI-H460 lung = tested on: NCI-H460 lung
NCI-H522 lung = tested on: NCI-H522 lung
NCI/ADR-RES ovarian = tested on: NCI/ADR-RES ovarian
OVCAR-3 ovarian = tested on: OVCAR-3 ovarian
OVCAR-4 ovarian = tested on: OVCAR-4 ovarian
OVCAR-5 ovarian = tested on: OVCAR-5 ovarian
OVCAR-8 ovarian = tested on: OVCAR-8 ovarian
PC-3 prostate = tested on: PC-3 prostate
RXF 393 renal = tested on: RXF 393 renal
SF-295 CNS = tested on: SF-295 CNS
SF-539 CNS = tested on: SF-539 CNS
SK-MEL-2 melanoma = tested on: SK-MEL-2 melanoma
SK-MEL-28 melanoma = tested on: SK-MEL-28 melanoma
SK-MEL-5 melanoma = tested on: SK-MEL-5 melanoma
SK-OV-3 ovarian = tested on: SK-OV-3 ovarian
SN12C renal = tested on: SN12C renal
SNB-19 CNS = tested on: SNB-19 CNS
SNB-75 CNS = tested on: SNB-75 CNS
SR leukemia = tested on: SR leukemia
SW-620 colon = tested on: SW-620 colon
T-47D breast = tested on: T-47D breast
TK-10 renal = tested on: TK-10 renal
U251 CNS = tested on: U251 CNS
UACC-257 melanoma = tested on: UACC-257 melanoma
UACC-62 melanoma = tested on: UACC-62 melanoma
UO-31 renal = tested on: UO-31 renal
A498 renal = tested on: A498 renal
HOP-62 NSCLC = tested on: HOP-62 NSCLC
HS 578T breast = tested on: HS 578T breast
RPMI-8226 leukemia = tested on: RPMI-8226 leukemia
SF-268 CNS = tested on: SF-268 CNS

COC(=O)C1=C(C(=O)OC)C(Cc2ccccc2)(OO)OC1=O (stereo not given) showed a TGI (786-0 renal) greater than 100 µM, a TGI (A549 NSCLC) greater than 100 µM and a TGI (ACHN renal) of 9.36 µM. It also gave a TGI (BT-549 breast) of 26.3 µM, a TGI (CAKI-1 renal) of 19.4 µM and a TGI (CCRF-CEM leukemia) of 6.69 µM. It also gave a TGI (COLO 205 colon) greater than 100 µM, a TGI (DU-145 prostate) greater than 100 µM and a TGI (EKVX NSCLC) of 37.3 µM. It also gave a TGI (HCC-2998 colon) greater than 100 µM, a TGI (HCT-116 colon) greater than 100 µM and a TGI (HCT-15 colon) of 16 µM. For the same compound, the TGI (HL-60(TB) leukemia) was 3.66 µM, the TGI (HOP-92 NSCLC) was 42.4 µM and the TGI (HT29 colon) was 24.2 µM. The TGI (IGROV1 ovarian) was 24.5 µM, the TGI (K-562 leukemia) was 63.7 µM and the TGI (KM12 colon) was 39.1 µM. The TGI (LOX IMVI melanoma) was 22.8 µM, the TGI (M14 melanoma) was greater than 100 µM and the TGI (MALME-3M melanoma) was 24.5 µM. The TGI (MCF7 breast) was 53.9 µM, the TGI (MDA-MB-231 breast) was greater than 100 µM and the TGI (MDA-MB-435) was greater than 100 µM. The TGI (MDA-N) was greater than 100 µM, the TGI (MOLT-4 leukemia) was 30.8 µM and the TGI (NCI-H226 lung) was 35.9 µM. The TGI (NCI-H23 lung) was 44.4 µM, the TGI (NCI-H460 lung) was greater than 100 µM and the TGI (NCI-H522 lung) was 6.71 µM. The TGI (NCI/ADR-RES ovarian) was greater than 100 µM, the TGI (OVCAR-3 ovarian) was 19.7 µM and the TGI (OVCAR-4 ovarian) was 52.3 µM. For the same compound, the TGI (OVCAR-5 ovarian) was 54.2 µM, the TGI (OVCAR-8 ovarian) was greater than 100 µM and the TGI (PC-3 prostate) was greater than 100 µM. It also gave a TGI (RXF 393 renal) of 32.8 µM, a TGI (SF-295 CNS) greater than 100 µM and a TGI (SF-539 CNS) of 17.1 µM. The TGI (SK-MEL-2 melanoma) was 96.2 µM, the TGI (SK-MEL-28 melanoma) was greater than 100 µM and the TGI (SK-MEL-5 melanoma) was greater than 100 µM. The TGI (SK-OV-3 ovarian) was 94.4 µM, the TGI (SN12C renal) was 98 µM and the TGI (SNB-19 CNS) was 58.9 µM. It also gave a TGI (SNB-75 CNS) of 49.6 µM, a TGI (SR leukemia) greater than 100 µM and a TGI (SW-620 colon) greater than 100 µM. It also gave a TGI (T-47D breast) greater than 100 µM, a TGI (TK-10 renal) of 15 µM and a TGI (U251 CNS) of 67.9 µM. It also gave a TGI (UACC-257 melanoma) greater than 100 µM, a TGI (UACC-62 melanoma) of 15.5 µM and a TGI (UO-31 renal) of 26.9 µM.

COC(=O)[C@H](Cc1ccccc1)NC(=O)N1CCCN(C(=O)N[C@@H](Cc2ccccc2)C(=O)OC)CCCN(C(=O)N[C@@H](Cc2ccccc2)C(=O)OC)CCC1 showed a TGI (786-0 renal) of 32.1 µM, a TGI (A498 renal) of 44.3 µM and a TGI (A549 NSCLC) of 76.4 µM. It also gave a TGI (ACHN renal) of 31.3 µM, a TGI (BT-549 breast) of 57.1 µM and a TGI (CAKI-1 renal) greater than 100 µM. For the same compound, the TGI (CCRF-CEM leukemia) was 92.8 µM, the TGI (COLO 205 colon) was 34.8 µM and the TGI (DU-145 prostate) was 34 µM. The TGI (EKVX NSCLC) was 53.5 µM, the TGI (HCC-2998 colon) was 38.6 µM and the TGI (HCT-116 colon) was 38.9 µM. It also gave a TGI (HCT-15 colon) of 63.4 µM, a TGI (HL-60(TB) leukemia) of 69.2 µM and a TGI (HOP-62 NSCLC) of 35.5 µM. It also gave a TGI (HOP-92 NSCLC) of 30.3 µM, a TGI (HS 578T breast) of 44.6 µM and a TGI (HT29 colon) of 33.5 µM. It also gave a TGI (IGROV1 ovarian) of 31.3 µM, a TGI (K-562 leukemia) greater than 100 µM and a TGI (KM12 colon) greater than 100 µM. It also gave a TGI (LOX IMVI melanoma) of 29.8 µM, a TGI (M14 melanoma) of 32.4 µM and a TGI (MALME-3M melanoma) of 34.1 µM. For the same compound, the TGI (MCF7 breast) was 49.3 µM, the TGI (MDA-MB-435) was 54.7 µM and the TGI (MDA-N) was 45.8 µM. For the same compound, the TGI (MOLT-4 leukemia) was 40.8 µM, the TGI (NCI-H226 lung) was 31.5 µM and the TGI (NCI-H23 lung) was 53.3 µM. For the same compound, the TGI (NCI-H460 lung) was 81.5 µM, the TGI (NCI-H522 lung) was 35.2 µM and the TGI (NCI/ADR-RES ovarian) was 74.7 µM. For the same compound, the TGI (OVCAR-3 ovarian) was 32.4 µM, the TGI (OVCAR-4 ovarian) was 54.7 µM and the TGI (OVCAR-5 ovarian) was 33 µM. It also gave a TGI (OVCAR-8 ovarian) of 47.2 µM, a TGI (PC-3 prostate) of 31.1 µM and a TGI (RPMI-8226 leukemia) greater than 100 µM. It also gave a TGI (RXF 393 renal) of 32.6 µM, a TGI (SF-268 CNS) of 34 µM and a TGI (SF-295 CNS) of 37.6 µM. The TGI (SK-MEL-2 melanoma) was 29.5 µM, the TGI (SK-MEL-28 melanoma) was 35.4 µM and the TGI (SK-MEL-5 melanoma) was 35.9 µM. It also gave a TGI (SK-OV-3 ovarian) of 73.9 µM, a TGI (SN12C renal) of 39.1 µM and a TGI (SNB-19 CNS) of 74.8 µM. For the same compound, the TGI (SNB-75 CNS) was 30.6 µM, the TGI (SW-620 colon) was 39.7 µM and the TGI (T-47D breast) was 34.8 µM. For the same compound, the TGI (TK-10 renal) was 65.4 µM, the TGI (U251 CNS) was 32.8 µM and the TGI (UACC-257 melanoma) was 35.5 µM. For the same compound, the TGI (UACC-62 melanoma) was 30.2 µM and the TGI (UO-31 renal) was 29.4 µM.
